Measurements as given in ChEMBL document CHEMBL3352707, “Antimycobacterial activity of natural products and synthetic agents: pyrrolodiquinolines and vermelhotin as anti-tubercular leads against clinical multidrug resistant isolates of Mycobacterium tuberculosis” (Eur J Med Chem, 2015).
≈ marks a conversion by molar mass, not a printed value.

system: MRC5; test: Cytotoxicity against human MRC5 cells at 50 ug/ml by MTT assay; assay type: cell-based; details: not given

Compound | Activity
COc1cccc2c1C(=O)c1c(O)c3c(c(O)c1C2=O)C[C@@](O)(C(=O)CO)C[C@@H]3O[C@H]1C[C@H](N)[C@H](O)[C@H](C)O1 [DOXORUBICIN] | Non-toxic

system: Mycobacterium tuberculosis; test: Antimycobacterial activity against Mycobacterium tuberculosis H37Ra after 7 days by microplate Alamar blue assay; assay type: functional; details: 168 h

Compound | MIC [µg/mL]
CN1C(=O)C(C2C3=C(CC(C)(C)CC3=O)Oc3ccc(Cl)cc32)C(=O)N(C)C1=O (centres undefined) | > 100
COc1cc(O)cc2c1C(=O)c1c(O)cc(C)cc1C2=O [QUESTIN] | 50 (≈ 176 µM)
C/C(=C\C=C\[C@H](O)[C@@H](C)O)[C@H](O)[C@H](C)C(=O)O[C@H]1C[C@H](C)C[C@@H]2C=C[C@H](C)[C@](C)(C(=O)C(O)CO)[C@@H]12 (some centres undefined) | > 100
COc1ccc(Br)c2c1OC1=C(C(=O)CCC1)C2c1c[nH]c2ccccc12 (centres undefined) | > 100
CC1(C)CC(=O)C2=C(C1)Oc1ccc3ccccc3c1C2c1c[nH]c2ccccc12 (centres undefined) | 25 (≈ 63.5 µM)
CC[C@H](C)[C@@H](O)[C@@H](C)C(=O)O[C@@]1(C)C(=O)c2c(cc(O)c3c2CCC[C@H]3C)C(C)(O)C1=O (some centres undefined) | > 100
C[C@@H]1[C@H](O)[C@@H](C)/C=C/C=C/C=C/C=C/C=C/C=C/C=C/[C@H](O[C@@H]2O[C@H](C)[C@@H](O)[C@H](N)[C@@H]2O)C[C@@H]2O[C@](O)(C[C@@H](O)C[C@@H](O)[C@H](O)CC[C@@H](O)C[C@@H](O)CC(=O)O[C@H]1C)C[C@H](O)[C@H]2C(=O)O [AMPHOTERICIN B] | > 100
CN1c2ccccc2C2CC1OC1=C2C(=O)CCC1 (centres undefined) | > 100
COc1ccc(Br)c2c1OC1=C(C(=O)CC(C)(C)C1)C2c1c[nH]c2ccccc12 (centres undefined) | > 100
O=C1c2c(O)cc(O)c([C@@H]3C(=O)c4c(O)cc(O)cc4O[C@H]3c3ccc(O)cc3)c2O[C@H](c2ccc(O)cc2)[C@H]1O | > 100
COc1cc(O)cc2cc3c(c(O)c12)C(=O)C[C@@](C)(O)C3 | 25 (≈ 86.7 µM)
CC1(C)CC(=O)C2=C(C1)Oc1c(O)cccc1C2n1nnc2ccccc21 (centres undefined) | > 100
CC[C@@H](C)C[C@]1(C)C=C/C(=C2/C(=O)O[C@H](CC(=O)O)C2=O)O1 | 100 (≈ 324 µM)
CN1C(=O)C(C2C3=C(CC(C)(C)CC3=O)Oc3ccccc32)C(=O)N(C)C1=O (centres undefined) | > 100
O=C1CCCC2=C1C(c1c[nH]c3ccccc13)c1ccccc1O2 (centres undefined) | > 100
O=C1CCCC2=C1C(n1nnc3ccccc31)c1cc(Br)ccc1O2 (centres undefined) | > 100
COc1ccc2c(c1)OC1=C(C(=O)CC(C)(C)C1)C2c1c[nH]c2ccccc12 (centres undefined) | 100 (≈ 268 µM)
O=C1NC(=O)/C(=C2/CCNC(=O)c3[nH]c(Br)cc32)N1 | > 100
COc1ccc2c(c1)C(C1C(=O)N(C)C(=O)N(C)C1=O)C1=C(CC(C)(C)CC1=O)O2 (centres undefined) | > 100
C/C(=C\C=C\[C@H](O)[C@@H](C)O)[C@H](O)[C@H](C)C(=O)O[C@H]1C[C@H](CO)C[C@@H]2C=C[C@H](C)[C@](C)(C(=O)C(O)CO)[C@@H]12 (some centres undefined) | > 100
CN1C(=O)C(C2C3=C(CCCC3=O)Oc3ccc([N+](=O)[O-])cc32)C(=O)N(C)C1=O (centres undefined) | > 100
CC1(C)CC(=O)C2=C(C1)Oc1ccc(Cl)cc1C2c1c(C(=O)O)[nH]c2ccccc12 (centres undefined) | 100 (≈ 237 µM)

Compound | MIC [µg/mL]
C/C=C(\C)c1c(Cl)c(OC)c(C)c2c1Oc1c(Cl)c(O)c(Cl)c(C)c1C(=O)O2 | 100 (≈ 225 µM)
O=C1CCCC2=C1C(n1nnc3ccccc31)c1cc(Cl)ccc1O2 (centres undefined) | > 100
C/C=C(\C)c1c(Br)c(O)c(C)c2c1Oc1cc(O)c(Br)c(C)c1C(=O)O2 | 50 (≈ 103 µM)
COC(=O)CCC[N+](=O)[O-] | 12.5 (≈ 85 µM)
O=C(c1ccccc1)c1cc2cc(Cl)ccc2oc1=O | > 100
O=C1CCCC2=C1C(c1c[nH]c3ccccc13)c1cccc(O)c1O2 (centres undefined) | > 100
O=C1CCCC2=C1C(c1c[nH]c3ccccc13)c1c(ccc3ccccc13)O2 (centres undefined) | > 100
COc1ccc2c(c1)C(n1nnc3ccccc31)C1=C(CCCC1=O)O2 (centres undefined) | > 100
COC(=O)C1=C(C)Oc2c(cc(C(C)(C)C)cc2C(C)(C)C)[C@@H]1[C@H](C(C)=O)C(=O)OC | > 100
O=C(c1ccccc1)c1cc2ccccc2oc1=O | 50 (≈ 200 µM)
CC1(C)CC(=O)C2=C(C1)Oc1c(cc(C(C)(C)C)cc1C(C)(C)C)C2c1c[nH]c2ccccc12 (centres undefined) | > 100
COC(=O)[C@@]12Oc3ccc(-c4ccc5c(c4O)C(O)C4=C(O)C[C@H](C)[C@@H](O)[C@]4(C(=O)OC)O5)c(O)c3C(=O)C1=C(O)C[C@H](C)[C@H]2O (some centres undefined) [SECALONIC ACID D] | > 100
COc1ccc2c(c1)C(C1=C(O)CCCC1=O)C1=C(CCCC1=O)O2 (centres undefined) | > 100
CC1(C)CC(=O)C2=C(C1)Oc1ccc(Br)cc1C2n1nnc2ccccc21 (centres undefined) | > 100
COc1ccc2oc(=O)c(C(C)=O)cc2c1 | > 100
COc1ccc2cc(C(C)=O)c(=O)oc2c1 | > 100
O=C(O)CC[N+](=O)[O-] | 50 (≈ 420 µM)
COC(=O)C1=C(C)Oc2ccc(OC)cc2[C@@H]1[C@H](C(C)=O)C(=O)OC | > 100
C[C@@H]1CCN2C[C@@]34C[C@@]5(CC(=O)N(C)C5=O)C(C)(C)[C@H]3C[C@@]12C(=O)N4C | 25 (≈ 69.5 µM)
CCN(CC)c1ccc2c(c1)OC1=C(C(=O)CC(C)(C)C1)C2c1c[nH]c2ccccc12 (centres undefined) | > 100
COc1ccc(Br)c2c1OC1=C(C(=O)CCC1)C2n1nnc2ccccc21 (centres undefined) | > 100
COc1ccc2c(c1)C(c1c[nH]c3ccccc13)C1=C(CCCC1=O)O2 (centres undefined) | 100 (≈ 290 µM)

Compound | MIC [µg/mL]
O=C1C[C@H]2SS[C@@]34C[C@@H]1[C@@H]([C@H]2O)N3C(=O)[C@@]12C[C@H]3C(=O)C[C@@H](S1)[C@H](O)[C@H]3N2C4=O [EPICOCCIN A] | > 100
COC(=O)[C@]1(Cc2ccc3c(c2)C[C@H](O)C(C)(C)O3)OC(=O)C(O)=C1c1ccc(O)cc1 [BUTYROLACTONE V] | > 100
COC(=O)[C@@H]1CC[C@@]23COC(=O)C2=CCC[C@@H]3[C@@]1(C)CC(=O)c1ccoc1 | > 100
COC(=O)c1cc2ccccc2oc1=O | > 100
CC(=O)c1cc2cc(Cl)ccc2oc1=O | > 100
COCCC(=O)O | > 100
CC1=CC2=C(Cc3c(O)cc(C)oc3=O)C(=O)[C@](C)(O)[C@@H](O)C2=CO1 | > 100
CN1C(=O)C(C2C3=C(CCCC3=O)Oc3ccc(Br)cc32)C(=O)N(C)C1=O (centres undefined) | > 100
COC(=O)C1=C(C)Oc2ccc(Cl)cc2[C@@H]1[C@H](C(C)=O)C(=O)OC | > 100
C/C=C/C1=CC=C/C(=C2\C(=O)CNC2=O)O1 [VERMELHOTIN] | 3.1 (≈ 14.3 µM)
NCCS(=O)(=O)O [TAURINE] | > 100
CC(=O)c1cc2cc(Br)ccc2oc1=O | > 100
CC(=O)c1cc2ccccc2[nH]c1=O | > 100
O=[N+]([O-])c1cccc2ncccc12 | 100 (≈ 574 µM)
O=C1CCCC2=C1C(c1c[nH]c3ccccc13)c1ccc(O)cc1O2 (centres undefined) | > 100
COC(=O)c1cc2c(ccc3ccccc32)oc1=O | 50 (≈ 197 µM)
CN1C(=O)C(C2C3=C(CC(C)(C)CC3=O)Oc3ccc([N+](=O)[O-])cc32)C(=O)N(C)C1=O (centres undefined) | > 100
C/C(=C\C=C\[C@H](O)[C@@H](C)O)[C@H](O)[C@H](C)C(=O)O[C@H]1C[C@H](C)C[C@@H]2C=C[C@H](C)[C@](C)(C(=O)CCO)[C@@H]12 | > 100
CN1c2cccc([N+](=O)[O-])c2C2CC1OC1=C2C(=O)CC(C)(C)C1 (centres undefined) | > 100
CC(=O)c1cc2cccc(O)c2oc1=O | > 100
CN1C(=O)C(C2C3=C(CC(C)(C)CC3=O)Oc3ccc(Br)cc32)C(=O)N(C)C1=O (centres undefined) | > 100
CC1(C)CC(=O)C2=C(C1)Oc1ccccc1C2c1c[nH]c2ccccc12 (centres undefined) | 50 (≈ 146 µM)

Compound | MIC [µg/mL]
C[n+]1cc2c(cn3c4ccccc4ccc23)c2ccccc21.[I-] | 1.5
O=C1CCCC2=C1C(c1c[nH]c3ccccc13)c1cc(Br)ccc1O2 (centres undefined) | 50 (≈ 127 µM)
CN1C(=O)C(C2C3=C(CCCC3=O)Oc3ccc(Cl)cc32)C(=O)N(C)C1=O (centres undefined) | > 100
O=C(OC[C@@H](O)[C@@H](O)COC(=O)/C(Cc1ccc(O)cc1)=N\O)/C(Cc1ccc(O)cc1)=N\O [ASPERGILLUSOL A] | > 100
COc1ccc2c(c1)OC1=C(C(=O)CCC1)C2c1c[nH]c2ccccc12 (centres undefined) | > 100
COC(=O)C1=C(C)Oc2ccc(Br)cc2[C@@H]1[C@H](C(C)=O)C(=O)OC | > 100
COC(=O)C1=C(C)Oc2c(O)cccc2[C@@H]1[C@H](C(C)=O)C(=O)OC | > 100
COc1ccc(Br)c2c1OC1=C(C(=O)CC(C)(C)C1)C2n1nnc2ccccc21 (centres undefined) | > 100
O=c1cc(CO)occ1O [KOJIC ACID] | > 100
CCC(N)C(=O)O (racemic) | > 100
CC1(C)CC(=O)C2=C(C1)Oc1c(O)cccc1C2c1c[nH]c2ccccc12 (centres undefined) | 100 (≈ 278 µM)
CN1Cc2c(cn3c2ccc2ccccc23)-c2ccccc21 | 0.7 (≈ 2.46 µM)
O=C(c1ccccc1)c1cc2c(ccc3ccccc32)oc1=O | > 100
O=C(c1ccccc1)c1cc2cc([N+](=O)[O-])ccc2oc1=O | 50 (≈ 169 µM)
O=C1CCCC2=C1C(c1c[nH]c3ccccc13)c1cc(Cl)ccc1O2 (centres undefined) | 50 (≈ 143 µM)
CN1c2ccccc2C2CC1OC1=C2C(=O)CC(C)(C)C1 (centres undefined) | > 100
C/C=C(\C)c1c(Cl)c(OC)c(C)c(O)c1Oc1c(Cl)c(O)c(Cl)c(C)c1C(=O)OC | 100 (≈ 210 µM)
Cc1cc(O)c2c(c1O)C(=O)c1cc(O)cc(O)c1C2=O [CATENARIN] | 100 (≈ 349 µM)
CC[C@H](C)[C@@H](O)[C@@H](C)C(=O)O[C@H]1CC(CC(=O)[C@H]2[C@H](C)CCC[C@@H]2O)=C(C)C(=O)[C@@]1(C)O | > 100

system: Mycobacterium tuberculosis; test: Antimycobacterial activity against p-Aminosalicylic acid-resistant Mycobacterium tuberculosis H37Rv ATCC 35821 after 7 days by microplate Alamar blue assay; assay type: functional; details: H37Rv ATCC 35821, 168 h

Compound | MIC [µg/mL]
C/C=C/C1=CC=C/C(=C2\C(=O)CNC2=O)O1 [VERMELHOTIN] | 3.1 (≈ 14.3 µM)
C[n+]1cc2c(cn3c4ccccc4ccc23)c2ccccc21.[I-] | 1.5
CN1Cc2c(cn3c2ccc2ccccc23)-c2ccccc21 | 1.5 (≈ 5.27 µM)

system: MRC5; test: Cytotoxicity against human MRC5 cells by MTT assay; assay type: cell-based; details: not given

Compound | IC50 [µg/mL]
C/C=C/C1=CC=C/C(=C2\C(=O)CNC2=O)O1 [VERMELHOTIN] | 6.97 (≈ 32.1 µM)
C[n+]1cc2c(cn3c4ccccc4ccc23)c2ccccc21.[I-] | 30
CN1Cc2c(cn3c2ccc2ccccc23)-c2ccccc21 | 23.5 (≈ 82.6 µM)

system: Mycobacterium tuberculosis; test: Antimycobacterial activity against Mycobacterium tuberculosis H37Rv after 7 days by microplate Alamar blue assay; assay type: functional; details: 168 h

Compound | MIC [µg/mL]
COC(=O)CCC[N+](=O)[O-] | 25 (≈ 170 µM)
O=C(O)CC[N+](=O)[O-] | 12.5 (≈ 105 µM)
O=C1C[C@H]2SS[C@@]34C[C@@H]1[C@@H]([C@H]2O)N3C(=O)[C@@]12C[C@H]3C(=O)C[C@@H](S1)[C@H](O)[C@H]3N2C4=O [EPICOCCIN A] | > 100
COCCC(=O)O | 100 (≈ 961 µM)
C/C=C/C1=CC=C/C(=C2\C(=O)CNC2=O)O1 [VERMELHOTIN] | 6.2 (≈ 28.5 µM)
C[n+]1cc2c(cn3c4ccccc4ccc23)c2ccccc21.[I-] | 6.2
CN1Cc2c(cn3c2ccc2ccccc23)-c2ccccc21 | 6.2 (≈ 21.8 µM)
